What is called IC50 is the midpoint of a concentration-inhibition curve.

Where two headings read alike, the source gives them in different places. In the oligonucleotide strings, read from the 5' end, every base follows the letter of its sugar. An asterisk marks phosphorothioate; unmarked linkages are phosphodiester. Other units and linkages are bracketed, terminal groups are in braces. A string of capitals states the bases alone. d = 2'-deoxy (DNA)

Here are results for two compounds from patent US9492470B2, “Use of HMGA-targeted phosphorothioate DNA aptamers to suppress carcinogenic activity and increase sensitivity to chemotherapy agents in human cancer cells” (MIAMI UNIVERSITY, priority 2012, dated 2016).

Data set [1] relates to HMGA1 expression levels in AsPC-1 cells. The data set is described as follows: Western blot of HMGA1 expression levels in AsPC-1 nuclear extracts. Type of data set: cell-based, Human. To be noted: AsPC-1, 100 nM gemcitabine, 48 hours. Here is the method: Cytoplasmic and nuclear protein extracts were prepared from pancreatic cancer cells using NE-PER extraction kit (Thermo Scientific, Rockford, Ill.). Protein concentrations were determined using a bicinchoninic acid assay with bovine serum albumin as a standard. Nuclear proteins that contained 25 or 15 μg total protein were separated by SDS-PAGE with a 4%-20% Criterion gradient gel (Bio-Rad Laboratories, Inc., Hercules, Calif.). The proteins were transferred to immuno-blot PVDF membrane (0.2 μm) (Bio-Rad Laboratories, Inc., Hercules, Calif.) and blocked in 5% dry milk in PBS supplemented with 0.2% Tween 20 (PBST). The PVDF membranes were then probed with 1:1000 dilution of rabbit anti-HMGA1 antibody (Santa Cruz Biotechnology Inc, Santa Cruz, Calif.) and 1:100 dilution of rabbit anti-HMGA2 antibody (Abcam plc, Cambridge, Mass.), in 3% BSA in PBST at 4° C. overnight. After three washes with PBST, the membrane was blotted with secondary antibody, ant-rabbit IgG-HRP (cell signaling) 1:5000 dilution in 1% dry milk in PBST at room temperature for 1 hour. An enhanced chemiluminescence detection (ECL, GE Healthcare Life Sciences, Piscataway, N.J.) system was used to detect target proteins. To ensure equal loading of the proteins between groups, membranes were re-probed with anti-TATA binding protein antibody (Abcam plc, Cambridge, Mass.). […] The control was nuclear extract from untreated cells. Triplicates of each sample were run on the gel and analyzed with the Alpha Imager. The relative HMGA1 densities were obtained by dividing HMGA 1 density by TBP density. […] TATA binding protein (TBP) was used as a loading control. […] HMGA1 expression levels were examined after transfection with CG-sDNA or AT-sDNA to determine if the transfection procedure affected HMGA1 expression levels. The AT-sDNA used for transfection contained an 18 adenine/thymine stretch enabling HMGA1 to bind the DNA with all three AT-hooks. As a negative control, a non-HMGA1-targeted sDNA containing an equal length of DNA but with no AT-stretches, i.e. CG-sDNA, was used. […]
(In general: In western blotting, separated proteins are transferred to a membrane and probed.)

Data set [2] has as its system AsPC-1 cells. The data set is described as follows: Cell growth with gemcitabine treatment after sDNA transfection, AsPC-1. To be noted: for Fold change in numbers of viable cells normalized relative to TC: AsPC-1, 0.1 ug sDNA. Format: cell-based, Human. Here is the method:
(§1) Cells were fixed after 96 hours and numbers of viable cells counted by measuring the absorbance at 570 nm.
(§2) Cells were transfected with 0.1 μg of TC-sDNA, Mix-sDNA, CG-sDNA, and AT-sDNA.

For data set [3], the system named is Miapaca-2 cells. The data set is described as follows: Cell growth with gemcitabine treatment after sDNA transfection, Miapaca-2. Format: cell-based, Human. To be noted: 96 hours; for Fold change in numbers of viable cells normalized relative to TC: Miapaca-2, 0.1 ug sDNA. Here is the method: as §1, §2
Data set [4] has as its system AsPC-1 cells. The data set is described as follows: Cell growth with gemcitabine treatment after sDNA transfection, AsPC-1. To be noted: for Fold change in numbers of viable cells, TC cells with gemcitabine: AsPC-1, TC (no sDNA), 96 hours. Format: cell-based, Human.
The test system of data set [5] is Miapaca-2 cells. The data set is described as follows: Cell growth with gemcitabine treatment after sDNA transfection, Miapaca-2. Type of data set: cell-based, Human. To be noted: for IC50: Homo sapiens, MIA PaCa-2, 96 h.
The subject of data set [6] is Miapaca-2 cells. In words: Cell viability (crystal violet) after sDNA transfection, Miapaca-2. Format: cell-based, Human. To be noted: for cells dead compared to UT: versus untransfected (UT) cells. Here is the method: The absorbance was measured at 570 nm in quadruplicate. All data from control cells were combined and averaged.
The subject of data set [7] is AsPC-1 cells. To be noted: for cells dead compared to UT: versus untransfected (UT) cells.
Protocol: AsPC-1 cells were grown in Roswell Park Memorial Institute medium supplemented with 10% FBS, and 1% penicillin-streptomycin.
Transfections using sDNA at concentrations of 0.1 and 0.25 μg per well were conducted with 5×10^4 and 1×10^5 Miapaca-2 and AsPC-1 cells, respectively, in 24-well plates and all data were collected in quadruplicate. Miapaca-2 and AsPC-1 cells were transfected with sDNA using Lipofectamine 2000 (Invitrogen,™ Life Technologies Corporation, Carlsbad, Calif.) according to the manufacturer's protocol.
Briefly, AsPC-1 cells grown in 10% FBS containing RPIM medium were trypsinized using a trypsin-EDTA solution commercially available from the Sigma-Aldrich, and used to seed fresh media in a 24-well plate with 10^5 cells per well.
After 48 hours, the cells were transfected with the selected sDNA using Lipofectamine 2000 (Invitrogen,™ Life Technologies Corporation, Carlsbad, Calif.) according to the manufacturer's protocol. […] The cells were then fixed with 4% paraformaldehyde in PBS for 20 minutes and stained in 0.1% crystal violet stain (Sigma-Aldrich) for 30 minutes. The cells were washed under running tap water, air dried, and extracted with 0.2% Triton™ X-100 for 30 minutes. […] The absorbance of the Triton X-100 was measured at 570 nm using a HTS microplate reader. All results were analyzed for statistical significance using a student's unpaired t-test.
The mark [8] stands for this setting: Miapaca-2, 0.1 μg sDNA, 96 h after transfection.
Where [9] appears, read: AsPC-1, 0.1 μg sDNA, 96 h after transfection.

Regarding `Nc1ccn([C@@H]2O[C@H](CO)[C@@H](O)C2(F)F)c(=O)n1` [Gemcitabine, gemcitabine], in data set [1], the “change in HMGA1 expression levels after gemcitabine” value is listed as “no change”. Besides, the “Fold change in numbers of viable cells, TC cells with gemcitabine” value is −1.04 fold in the data set on AsPC-1 cells [2] (AsPC-1, TC (no sDNA), Gemcitabine 30 nM, 96 hours); −3.21 fold with Miapaca-2 cells [3] (Miapaca-2, TC (no sDNA), Gemcitabine 30 nM); −1.02 fold in the data set with AsPC-1 cells [4] (Gemcitabine 10 nM); −1.36 fold with AsPC-1 cells [4] (Gemcitabine 100 nM); −1.52 fold in the data set with AsPC-1 cells [4] (Gemcitabine 1000 nM); 1.00 fold with Miapaca-2 cells [5] (Miapaca-2, TC (no sDNA), Gemcitabine 1 nM, 96 hours). In addition, the “Fold change in numbers of viable cells, TC cells with gemcitabine” value with Miapaca-2 cells [5] (Miapaca-2, TC (no sDNA), Gemcitabine 10 nM, 96 hours) is given as −1.30 fold; with Miapaca-2 cells [5] (Miapaca-2, TC (no sDNA), Gemcitabine 100 nM, 96 hours), −3.59 fold; with Miapaca-2 cells [5] (Miapaca-2, TC (no sDNA), Gemcitabine 1000 nM, 96 hours), −3.47 fold. Also, the IC50 stood at 28 nM in the data set on AsPC-1 cells [2] (Homo sapiens, ASPC1, 96 h, read-out: Gemcitabine IC50 in transfection control (TC) cells, AsPC-1, TC (no sDNA), 0.1 μg column, 96 hours); 24.8 nM in the data set on AsPC-1 cells [4] (Homo sapiens, ASPC1, 96 h, read-out: Gemcitabine IC50 in transfection control (TC) cells, AsPC-1, TC (no sDNA), 0.25 μg column, 96 hours); 11.9 ± 1.2 nM in the data set with Miapaca-2 cells [5] (read-out: Gemcitabine IC50 in transfection control (TC) cells, Miapaca-2, TC (no sDNA), 0.1 μg column, 96 hours); 21.5 ± 0.6 nM in the data set with Miapaca-2 cells [5] (read-out: Gemcitabine IC50 in transfection control (TC) cells, Miapaca-2, TC (no sDNA), 0.25 μg column, 96 hours). Besides, in the data set on Miapaca-2 cells [5] (Miapaca-2, TC (no sDNA), 1 nM gemcitabine, 96 hours), the “change in cell viability, TC cells” value is “no significant change”. The “cells surviving, TC cells” value with Miapaca-2 cells [5] (Miapaca-2, TC (no sDNA), 10 nM gemcitabine, 96 hours) worked out at 77.1%.
Regarding “Mix-sDNA: random phosphorothioate DNA (SEQ ID NO: 13), control lacking a HMGA-specific binding sequence (DNA dC*dC*dC*dA*dC*dT*dG*dC*dA*dG*dT*dC*dG*dG*dA*dC*dT*dC*dA*dC*dT*dC*dG*dC)”, the “cells dead compared to UT” value is on record as 30.4% with Miapaca-2 cells [6] (Miapaca-2, 0.1 ug sDNA, 48 hrs); 33.3% in the data set with Miapaca-2 cells [6] (Miapaca-2, 0.1 ug sDNA, 96 hrs); 28.0% in the data set with AsPC-1 cells [7] (AsPC-1, 0.1 ug sDNA, 48 hrs); 19.4% in the data set on AsPC-1 cells [7] (AsPC-1, 0.1 ug sDNA, 96 hrs). Further, the “Fold change in numbers of viable cells between TC and sDNA transfected cells (in parentheses)” value is on record as “(1.07) fold” with Miapaca-2 cells [6] (setting [8]) and “(−1.14) fold” in the data set on AsPC-1 cells [7] (setting [9]). Moreover, the “Fold change in numbers of viable cells between UT and transfected cells” value is −1.45 fold with Miapaca-2 cells [6] (setting [8]) and −1.24 fold in the data set on AsPC-1 cells [7] (setting [9]). Moreover, the “difference in cell viability between TC cells and sDNA transfected cells” value is “no significant differences” with Miapaca-2 cells [6] (Miapaca-2, 0.1 ug sDNA, both 48 and 96 hours); “no significant differences” in the data set on AsPC-1 cells [7] (AsPC-1, 0.1 ug sDNA, both 48 and 96 hours). The “Fold change in numbers of viable cells normalized relative to TC” value in the data set on AsPC-1 cells [2] (Gemcitabine 0 nM, 96 hours) is on record as −1.14 fold; in the data set with AsPC-1 cells [2] (Gemcitabine 1 nM, 96 hours) it was −1.06 fold; in the data set with AsPC-1 cells [2] (Gemcitabine 10 nM, 96 hours) it was −1.16 fold; in the data set on AsPC-1 cells [2] (Gemcitabine 30 nM, 96 hours), −1.17 fold; in the data set on AsPC-1 cells [2] (Gemcitabine 100 nM, 96 hours), −1.36 fold; with AsPC-1 cells [2] (Gemcitabine 1000 nM, 96 hours) it was −1.59 fold. Besides, the “Fold change in numbers of viable cells normalized relative to TC” value in the data set with Miapaca-2 cells [3] (Gemcitabine 0 nM) is listed as 1.07 fold; with Miapaca-2 cells [3] (Gemcitabine 10 nM), 1.01 fold; with Miapaca-2 cells [3] (Gemcitabine 30 nM), −2.65 fold; with Miapaca-2 cells [3] (Gemcitabine 100 nM) it was −4.41 fold; in the data set with Miapaca-2 cells [3] (Gemcitabine 1000 nM), −4.48 fold; with Miapaca-2 cells [5] (Miapaca-2, 0.1 ug sDNA, Gemcitabine 1 nM, 96 hours), 1.12 fold. In addition, the “cells dead / change in cell viability” value with Miapaca-2 cells [3] (Miapaca-2, 0.1 μg sDNA, 1 nM gemcitabine) is “no significant change”. Moreover, the cells surviving with Miapaca-2 cells [3] (Miapaca-2, 0.1 μg sDNA, 10 nM gemcitabine, normalized to 0 nM gemcitabine) was 94.5%.
